Data on two molecules can be found in ChEMBL document CHEMBL3758118, “Effects of a novel carbocyclic analog of pyrrolo[2,3-d]pyrimidine nucleoside on pleiotropic induction of cell death in prostate cancer cells with different androgen responsiveness” (2016).

Assay [1] is described as follows: Cell cycle distribution in human LNCaP C4-2 cells assessed as accumulation at sub-G1 phase at 9 uM for 48 hrs in presence of 100 uM AR inhibitor flutamide by propidium-iodide staining based flow cytometry. The assay is classed as functional. Background: A flow cytometer gives signals particle by particle.
Assay [2] can be described thus: Cell cycle distribution in human LNCaP C4-2 cells assessed as accumulation at sub-G1 phase at 9 uM after 48 hrs by propidium iodide staining based flow cytometry. Type of assay: functional.
For assay [3], the system named is LNCaP. As to the kind of experiment: Induction of apoptosis in human LNCaP C4-2 cells assessed as increase p21(Cip1) mRNA level at 9 uM by semiquantitative RT-PCR technique relative to control. Type of assay: functional.
In assay [4] the test system is LNCaP. In words: Induction of apoptosis in human LNCaP C4-2 cells assessed as increase in cleaved PARP level at 9 uM after 48 hrs in presence of 100 uM AR inhibitor flutamide by western blot analysis. The assay is classed as functional, cell-based. In general terms: Immunoblotting shows a protein as a band on a membrane.
Assay [5] relates to LNCaP. In words: Induction of apoptosis in human LNCaP C4-2 cells assessed as increase in cleaved PARP level at 9 uM after 48 hrs by western blot analysis. Type of assay: functional, cell-based.
For assay [6], the system named is LNCaP. In words: Induction of apoptosis in human LNCaP C4-2 cells assessed as increase in caspase3 level at 9 uM after 48 hrs in presence of 100 uM AR inhibitor flutamide by western blot analysis. Type of assay: functional, cell-based.
The subject of assay [7] is LNCaP. As to the kind of experiment: Induction of apoptosis in human LNCaP C4-2 cells assessed as increase in caspase3 level at 9 uM after 48 hrs by western blotting analysis. The assay is classed as functional, cell-based.
In assay [8] the test system is LNCaP. In words: Induction of apoptosis in human LNCaP C4-2 cells assessed as increase in p21(Cip1) expression at 9 uM after 48 hrs in presence of 100 uM AR inhibitor flutamide by western blotting analysis. Type of assay: functional, cell-based.
The test system of assay [9] is LNCaP. As to the kind of experiment: Induction of apoptosis in human LNCaP C4-2 cells assessed as increase in p21(Cip1) expression at 9 uM after 48 hrs by western blotting analysis. Type of assay: functional, cell-based.
Assay [10] concerns LNCaP. As to the kind of experiment: Antiproliferative activity against human LNCaP C4-2 cells assessed as cell viability at 9 uM after 48 hrs by MTT assay. The assay is classed as functional, cell-based.
Assay [11] concerns LNCaP. As to the kind of experiment: Antiproliferative activity against human LNCaP C4-2 cells assessed as cell viability at 6 uM after 48 hrs by MTT assay. Type of assay: functional, cell-based. On the technique in general: Tetrazolium assays rely on reduction of a dye to a coloured formazan, in cell work by metabolically active cells.
In assay [12] the test system is LNCaP. In words: Antiproliferative activity against human LNCaP C4-2 cells assessed as cell viability at 6 uM after 24 hrs by MTT assay. The assay is classed as functional, cell-based.
Assay [13] relates to LNCaP. As to the kind of experiment: Antiproliferative activity against human LNCAP cells assessed as cell viability at 6 uM after 24 hrs by MTT assay. Type of assay: functional, cell-based.
In assay [14] the test system is LNCaP. In words: Cell cycle distribution in human LNCAP cells assessed as accumulation at sub-G1 phase at 6 uM after 24 hrs in presence of 100 uM AR inhibitor flutamide by propidium-iodide staining based flow cytometry. The assay is classed as functional.
The subject of assay [15] is LNCaP. As to the kind of experiment: Induction of apoptosis in human LNCAP cells assessed as p21(Cip1) mRNA level at 6 uM in presence of 100 uM AR inhibitor flutamide by semiquantitative RT-PCR technique relative to control. The assay is classed as functional.
Assay [16] relates to LNCaP. As to the kind of experiment: Induction of apoptosis in human LNCAP cells assessed as caspase-3 expression at 6 uM after 24 hrs cell pretreated with 100 uM AR inhibitor flutamide by western blot analysis. Type of assay: functional, cell-based.
In assay [17] the test system is LNCaP. In words: Induction of apoptosis in human LNCAP cells assessed as increase in p21(Cip1) mRNA level at 6 uM by semiquantitative RT-PCR technique relative to control. Type of assay: functional.
The subject of assay [18] is LNCaP. As to the kind of experiment: Induction of apoptosis in human LNCAP cells assessed as cleaved PARP expression at 6 uM after 24 hrs cell pretreated with 100 uM AR inhibitor flutamide by western blot analysis. Type of assay: functional, cell-based.
The subject of assay [19] is LNCaP. In words: Induction of apoptosis in human LNCAP cells assessed as caspase-9 expression at 6 uM after 24 hrs cell pretreated with 100 uM AR inhibitor flutamide by western blot analysis. Type of assay: functional, cell-based.
Assay [20] concerns LNCaP. As to the kind of experiment: Induction of apoptosis in human LNCAP cells assessed as caspase-8 expression at 6 uM after 24 hrs cell pretreated with 100 uM AR inhibitor flutamide by western blot analysis. The assay is classed as functional, cell-based.
Assay [21] relates to LNCaP. As to the kind of experiment: Induction of apoptosis in human LNCAP cells assessed as p21(Cip1) expression at 6 uM after 24 hrs cell pretreated with 100 uM AR inhibitor flutamide by western blot analysis. The assay is classed as functional, cell-based.
For assay [22], the system named is DU-145. In words: Induction of apoptosis in human DU145 cells assessed as DNA fragmentation at 6 uM after 48 hrs in presence of 5 mM autophagy inhibitor 3-methyladenine by TUNEL assay. Type of assay: functional, cell-based.
Assay [23] relates to DU-145. In words: Induction of apoptosis in human DU145 cells assessed as increase in cleaved PARP level at 6 uM after 48 hrs by western blotting analysis. Type of assay: functional, cell-based.
Assay [24] has as its system DU-145. In words: Induction of apoptosis in human DU145 cells assessed as increase in p21(Cip1) expression at 6 uM after 48 hrs by western blotting analysis. Type of assay: functional, cell-based.
Assay [25] deals with DU-145. In words: Induction of apoptosis in human DU145 cells assessed as accumulation of autophagic vacuoles in cytoplasm at 6 uM after 24 hrs by fluorescence microscopic analysis. Type of assay: functional, cell-based.
In assay [26] the test system is LNCaP. In words: Induction of apoptosis in human LNCAP cells assessed as increase in cleaved PARP level at 6 uM after 24 hrs by western blotting analysis. Type of assay: functional, cell-based.
Assay [27] deals with DU-145. In words: Induction of apoptosis in human DU145 cells assessed as cleaved PARP level at 6 uM after 24 hrs by western blotting analysis. Type of assay: functional, cell-based.
Assay [28] has as its system DU-145. As to the kind of experiment: Induction of apoptosis in human DU145 cells assessed as active caspase-3 level at 6 um after 24 hrs by western blotting analysis. Type of assay: functional, cell-based.
Assay [29] relates to LNCaP. As to the kind of experiment: Induction of apoptosis in human LNCAP cells assessed as increase active caspase3 level at 6 uM after 24 hrs by western blotting analysis. Type of assay: functional, cell-based.
The subject of assay [30] is LNCaP. In words: Induction of apoptosis in human LNCAP cells assessed as increase in p21(Cip1) expression at 6 uM after 24 hrs by western blotting analysis. Type of assay: functional, cell-based.
Assay [31] concerns DU-145. As to the kind of experiment: Induction of apoptosis in human DU145 cell assessed as p21(Cip1) expression at 6 uM after 24 hrs by western blotting analysis. The assay is classed as functional, cell-based.
For assay [32], the system named is DU-145. As to the kind of experiment: Induction of apoptosis in human DU145 cells assessed as formation of crescent shaped apoptotic bodies at 6 uM after 24 hrs by transmission electron microscopic analysis. The assay is classed as functional, cell-based.
Assay [33] deals with LNCaP. In words: Induction of apoptosis in human LNCAP cells assessed as formation of crescent shaped apoptotic bodies at 6 uM after 24 hrs by transmission electron microscopic analysis. The assay is classed as functional, cell-based.
Assay [34] has as its system DU-145. As to the kind of experiment: Induction of apoptosis in human DU145 cells assessed as chromatin condensation at 6 uM after 24 hrs by transmission electron microscopic analysis. Type of assay: functional, cell-based.
Assay [35] concerns LNCaP. As to the kind of experiment: Induction of apoptosis in human LNCAP cells assessed as chromatin condensation at 6 uM after 24 hrs by transmission electron microscopic analysis. The assay is classed as functional, cell-based.
Assay [36] relates to LNCaP. As to the kind of experiment: Induction of apoptosis in human LNCAP cells assessed as p21(Cip1) expression at 6 uM by western blotting analysis. The assay is classed as functional, cell-based.
For assay [37], the system named is LNCaP. As to the kind of experiment: Induction of apoptosis in human LNCAP cells assessed as caspase3 level at 6 uM by western blot analysis. The assay is classed as functional, cell-based.
Assay [38] relates to LNCaP. In words: Induction of apoptosis in human LNCAP cells assessed as cleaved PARP level at 6 uM by western blot analysis. The assay is classed as functional, cell-based.

Activity calls are given as the source filed them. The rule behind the calls is not given here.

Take `NC(=O)c1c(Br)nc2n(C3CCCC3)cnc(N)c1-2`: the outcome (in assay [1]; in the assay with LNCaP [4]; in the assay on LNCaP [5]; in the assay with LNCaP [6]; with LNCaP [7]; in the assay on LNCaP [8]) was Active. In addition, the result with LNCaP [9], with LNCaP [10], in the assay with LNCaP [11], in the assay on LNCaP [13], with DU-145 [23] and in the assay with DU-145 [24] was Active. Besides, the result with DU-145 [25], with LNCaP [26], in the assay with LNCaP [29], with LNCaP [30], in the assay on LNCaP [33] and in the assay with LNCaP [35] was Active. Moreover, the Activity in [2] came out at 30%. For the same molecule, the “fold change (FC)” value in the assay on LNCaP [3] is 23; in the assay with LNCaP [15] it was 0.38; with LNCaP [17] it was 56.98. Besides, the result in the assay with LNCaP [12], in the assay with LNCaP [14], in the assay on LNCaP [16], in the assay on LNCaP [18], with LNCaP [19] and with LNCaP [20] was inactive. In addition, the result with LNCaP [21], with DU-145 [22], in the assay on DU-145 [27], with DU-145 [28], in the assay with DU-145 [31] and in the assay with DU-145 [32] was inactive. In the assay on DU-145 [34], the outcome was inactive.

Turning to `NC(=O)c1c(Br)n(C2CCCC2)c2ncnc(N)c12`, the outcome in the assay on LNCaP [36], in the assay with LNCaP [37] and in the assay on LNCaP [38] was inactive.
